According to patent publication US20110065712A1, “TRICYCLIC COMPOUNDS AND PHARMACEUTICAL USES THEREOF” (CYLENE PHARMACEUTICALS , INC., priority 2009, published 2011):

How the values were obtained:
recombinant human Pim-2 = recombinant human Pim-2 (Homo sapiens, UniProt Q9P1W9); assay: PIM-2 assay (33P-ATP, filter plate); assay type: biochemical; details: read-out: PIM2: IC50
Protocol: Test compounds dissolved and diluted in DMSO (2 μl) were added to a reaction mixture comprising 10 μl of 5× Reaction Buffer (40 mM MOPS pH 7.0, 5 mM EDTA), 10 μl of recombinant human Pim-2 solution (4 ng Pim-2 dissolved in dilution buffer (20 mM MOPS pH 7.0; EDTA 1 mM; 5% Glycerol; 0.01% Brij 35; […]; […] 2-mercaptoethanol; 1 mg/ml BSA)) and 8 ul of water. Reactions were initiated by the addition of 10 ul of ATP Solution (49% (15 mM MgCl2; 75 uM ATP) 1% ([γ-^33P]ATP: Stock 1mCi/1000; 3000Ci/mmol (Perkin Elmer)) and 10 ul of substrate peptide solution (RSRSSYPAGT, dissolved in water at a concentration of 1 mM), Reactions were maintained for 10 min at 30° C. The reactions were quenched with 100 ul of 0.75% phosphoric acid, then transferred to and filtered through a Phosphocellulose filter plate (Millipore, MSPH-N6B-50). After washing each well 4 times with 0.75% phosphoric acid, scintillation fluid (20 uL) was added to each well and the residual radioactivity was measured using a Wallac […] counter.

recombinant Pim-1 = recombinant Pim-1 (Homo sapiens, UniProt P11309); assay: Pim-1 assay (33P-ATP, filter plate); assay type: biochemical; details: read-out: PIM1: IC50
Protocol: The following procedure was used to assay the Pim-1 kinase activity of compounds of the invention. Other methods for assaying Pim-1 and other Pim kinases, as well as methods to assay for activity against the various kinases disclosed herein are known in the art.
In a final reaction volume of 50 ul, recombinant Pim-1 (1 ng) was incubated with 12 mM MOPS pH 7.0, 0.4 mM EDTA, glycerol 1%, brij 35 0.002%, 2-mercaptoethanol 0.02%, BSA 0.2 mg/ml, 100 uM KKRNRTLTK, 10 mM MgAcetate, 15 uM ATP, [γ-^33P-ATP] (specific activity approx. […]), DMSO 4% and test inhibitor compound at the required concentration. The reaction was initiated by the addition of the magnesium ATP mixture. After 40 min incubation at 23° C., the reactions were quenched by the addition of 100 ul 0.75% Phosphoric acid, and the labeled peptide collected by filtration through a phosphocellulose filter plate. The plate was washed 4 times with 0.075% phosphoric acid (100 ul per well) and then, after the addition of scintillation fluid (20 ul per well), the counts were measured by a scintillation counter.

Chain of recombinant Pim-1 (P11309 whole entry): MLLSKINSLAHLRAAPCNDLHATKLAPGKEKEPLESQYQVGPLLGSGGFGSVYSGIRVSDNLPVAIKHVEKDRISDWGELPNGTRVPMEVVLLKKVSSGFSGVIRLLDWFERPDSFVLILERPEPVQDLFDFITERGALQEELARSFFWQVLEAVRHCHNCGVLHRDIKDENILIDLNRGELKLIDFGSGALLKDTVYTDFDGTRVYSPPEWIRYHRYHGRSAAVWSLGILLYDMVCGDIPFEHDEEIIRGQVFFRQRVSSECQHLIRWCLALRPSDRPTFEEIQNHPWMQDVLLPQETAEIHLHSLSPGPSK
Chain of recombinant human Pim-2 (Q9P1W9 whole entry): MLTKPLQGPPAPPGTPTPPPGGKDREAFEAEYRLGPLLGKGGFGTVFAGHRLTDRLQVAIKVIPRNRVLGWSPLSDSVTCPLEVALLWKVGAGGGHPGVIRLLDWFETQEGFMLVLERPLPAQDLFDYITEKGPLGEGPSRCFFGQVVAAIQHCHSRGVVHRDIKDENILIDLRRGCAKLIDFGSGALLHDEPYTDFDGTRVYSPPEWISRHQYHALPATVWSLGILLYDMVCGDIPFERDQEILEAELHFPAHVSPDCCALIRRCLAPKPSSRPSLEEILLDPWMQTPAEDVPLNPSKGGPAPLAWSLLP

- IC50 (recombinant human Pim-2): < 1 µM
- IC50 (recombinant Pim-1): < 1 µM
SMILES: NC(=O)c1cnn2c1nc(Nc1ccccc1Cl)c1ccccc12 [Compound B, 5-(2-chlorophenylamino)pyrazolo[1,5-a]quinazoline-3-carboxamide]
